Like-named read-outs stand apart in the source and are kept apart here.
What was measured:
[1] = test system: TNFα production in LPS-stimulated human monocytes; experiment: Cot Monocyte TNFα Cell Based Assay; conditions: read-out: EC50 TNF
Procedure, shortened: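 Percent-of-control values derive from TR-FRET ratios of TNFα in spun-down media, referenced to unstimulated and LPS-stimulated wells. Exposure: 1 h compound preincubation, then 50 pg/ml LPS for 4 h, both at 37 °C, with 0.5% final DMSO.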

[2] = target: T1, human Cot catalytic domain (30-397 amino acids) (Homo sapiens, UniProt P41279); experiment: High Throughput Cot Biochemical Assay (KinEASE TR-FRET); conditions: read-out: IC50 HTRF
T1 construct: Purified recombinant human Cot catalytic domain (30-397 amino acids) was purchased from Cama Biosciences; purchased Cama Biosciences (so in the source)
T1 sequence (P41279 30-397): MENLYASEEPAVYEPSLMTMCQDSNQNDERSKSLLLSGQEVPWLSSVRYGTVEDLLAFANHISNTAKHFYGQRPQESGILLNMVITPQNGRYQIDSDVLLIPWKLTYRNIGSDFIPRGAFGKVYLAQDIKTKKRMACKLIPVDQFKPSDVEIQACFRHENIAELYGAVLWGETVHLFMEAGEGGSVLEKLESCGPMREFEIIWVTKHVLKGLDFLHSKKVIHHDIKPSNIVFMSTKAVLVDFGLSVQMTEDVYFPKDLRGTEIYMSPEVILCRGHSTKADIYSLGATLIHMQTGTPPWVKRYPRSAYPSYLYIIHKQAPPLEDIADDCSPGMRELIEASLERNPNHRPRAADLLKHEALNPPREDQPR
Procedure, shortened: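 Phosphorylation of 1 μM XL665-STK3 peptide by 5 nM Cot catalytic domain was measured by time-resolved FRET using a europium […] antibody. ATP was 400 μM; buffer was 10 mM MOPS pH 7.0 with Mg2+ and DTT.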

[3] = Homo sapiens, Monocyte, TNFα in LPS-stimulated human monocytes
[4] = Cot KinEASE TR-FRET (HTRF) biochemical assay, 400 μM ATP
[5] = Cot KinEASE TR-FRET, 400 μM ATP
[6] = Homo sapiens, Monocyte, LPS-stimulated human monocytes, TNFα TR-FRET
[7] = Cot biochemical HTRF (KinEASE TR-FRET) assay

| Structure (SMILES) | EC50 [1, 3] [nM] | IC50 [2, 4] [nM] | IC50 [2, 5] [nM] | other results |
| --- | --- | --- | --- | --- |
| Cc1c(C#N)cccc1[C@H](Nc1cc(C#N)c2ncc(C#N)c(NCC(C)(C)C(F)(F)F)c2c1)c1cn(C2(C(F)F)CC2)nn1 [Example 1126, (S)-6-(((3-cyano-2-methylphenyl)(1-(1-(difluoromethyl)cyclopropyl)-1H-1,2,3-triazol-4-yl)methyl)amino)-4-((3,3,3-trifluoro-2,2-dimethylpropyl)amino)quinoline-3,8-dicarbonitrile] | – | – | 5 | EC50 ([1]; LPS-stimulated human monocytes, TNFα TR-FRET): 66 nM |
| Cc1c(-c2cccnc2)cccc1[C@H](Nc1cc(C#N)c2ncc(C#N)c(NCC(C)(C)C)c2c1)c1cn(C2(C(F)(F)F)CC2)nn1 [Example 1136, (S)-6-(((2-methyl-3-(pyridin-3-yl)phenyl)(1-(1-(trifluoromethyl)cyclopropyl)-1H-1,2,3-triazol-4-yl)methyl)amino)-4-(neopentylamino)quinoline-3,8-dicarbonitrile] | – | – | 4 | EC50 [1, 6]: 128 nM |
| CCN1CCC(n2cc([C@@H](Nc3cc(F)c4ncc(C#N)c(Nc5ccc(F)c(Cl)c5)c4c3)c3ccc(Cl)cc3)nn2)CC1 [Example 813, (S)-4-((3-chloro-4-fluorophenyl)amino)-6-(((4-chlorophenyl)(1-(1-ethylpiperidin-4-yl)-1H-1,2,3-triazol-4-yl)methyl)amino)-8-fluoroquinoline-3-carbonitrile] | 116 | – | – | IC50 [2, 7]: 6 nM |
| [2H][C@](Nc1cc(C#N)c2ncc(C#N)c(NCC(C)(C)C)c2c1)(c1ccc(F)cc1)c1cn(CCC2CN2C(C)(C)C)nn1 (stereo partly drawn) [Example 993, 6-(((1S)-(1-(2-(1-(tert-butyl)aziridin-2-yl)ethyl)-1H-1,2,3-triazol-4-yl)(4-fluorophenyl)methyl-d)amino)-4-(neopentylamino) quinoline-3,8-dicarbonitrile] | – | – | 32 | EC50 ([1]; Homo sapiens, Monocyte): 3610 nM |
| N#Cc1cnc2c(Cl)cc(N[C@@H](c3cccc(N4CCCS4(=O)=O)c3)c3c[nH]nn3)cc2c1Nc1ccc(Cl)c(Cl)c1F [Example 528, (S)-8-chloro-4-((3,4-dichloro-2-fluorophenyl)amino)-6-(((3-(1,1-dioxidoisothiazolidin-2-yl)phenyl)(1H-1,2,3-triazol-4-yl)methyl)amino)quinoline-3-carbonitrile] | 830 | – | – | IC50 [2, 7]: 54 nM |
| CC(C)(C)CNc1c(C#N)cnc2c(C#N)cc(N[C@@H](c3cccc(-c4ncco4)c3)c3cn(C4CC4)nn3)cc12 [Example 82, (S)-6-(((1-cyclopropyl-1H-1,2,3-triazol-4-yl)(3-(oxazol-2-yl)phenyl)methyl)amino)-4-(neopentylamino) quinoline-3,8-dicarbonitrile] | 183 | 1 | – | – |
| Cc1c(C#N)cccc1[C@H](Nc1cc(C#N)c2ncc(C#N)c(NCC(C)(C)C)c2c1)c1cn(C(CF)CF)nn1 [Example 1149, (S)-6-(((3-cyano-2-methylphenyl)(1-(1,3-difluoropropan-2-yl)-1H-1,2,3-triazol-4-yl)methyl)amino)-4-(neopentylamino)quinoline-3,8-dicarbonitrile] | – | – | 4 | EC50 [1, 6]: 45 nM |
| N#Cc1cnc2c(Cl)cc(N[C@@H](c3ccc(F)cc3)c3c[nH]nn3)cc2c1Nc1cccnc1F [Example 373, (S)-8-chloro-6-(((4-fluorophenyl)(1H-1,2,3-triazol-4-yl)methyl)amino)-4-((2-fluoropyridin-3-yl)amino)quinoline-3-carbonitrile] | 7520 | 3010 | – | – |

Second part, led by results:

| EC50 [1, 3] [nM] | IC50 [2, 4] [nM] | IC50 [2, 5] [nM] | Structure (SMILES) | other results |
| --- | --- | --- | --- | --- |
| 95 | 3 | – | N#CCC[C@@H](Nc1c(C#N)cnc2c(Cl)cc(N[C@H](c3cn(C4COC4)nn3)c3ccccc3Cl)cc12)c1ccccc1 [Example 65, 8-chloro-6-(((S)-(2-chlorophenyl)(1-(oxetan-3-yl)-1H-3-triazol-4-yl)methyl)amino)-4-(((R)-3-cyano-1-phenylpropyl)amino) quinoline-3-carbonitrile] | – |
| 246 | 23 | – | [2H][C@](Nc1cc(Cl)c2ncc(C#N)c(Nc3c(F)ccc(Cl)c3F)c2c1)(c1cccc(C#N)c1)c1cn(C2CC2)nn1 [Example 275, (S)-8-chloro-4-((3-chloro-2,6-difluorophenyl)amino)-6-(((3-cyanophenyl)(1-cyclopropyl-1H-1,2,3-triazol-4-yl)methyl-d)amino)quinoline-3-carbonitrile] | – |
| > 10000 | – | – | Cn1cc(Nc2c(C#N)cnc3c(Cl)cc(N[C@@H](c4ccccc4)c4cn(C5CCN(C(C)(C)C)CC5)nn4)cc23)ccc1=O [Example 484, (S)-6-(((1-(1-(tert-butyl)piperidin-4-yl)-1H-1,2,3-triazol-4-yl)(phenyl)methyl)amino)-8-chloro-4-((1-methyl-6-oxo-1,6-dihydropyridin-3-yl)amino)quinoline-3-carbonitrile] | IC50 [2, 7]: 371 nM |
| 71 | 1 | – | [2H][C@](Nc1cc(Cl)c2ncc(C#N)c(NCC(C)(C)C)c2c1)(c1cccc(C#N)c1)c1cn(C2CC2)nn1 [Example 341, (S)-8-chloro-6-(((3-cyanophenyl)(1-cyclopropyl-1H-1,2,3-triazol-4-yl)methyl-d)amino)-4-(neopentylamino)quinoline-3-carbonitrile] | – |
| 170 | 3 | – | [2H][C@](Nc1cc(Cl)c2ncc(C#N)c(Nc3cccc(Cl)c3OC)c2c1)(c1ccc(F)cc1)c1cn(C2CC2)nn1 [Example 163, (S)-8-chloro-4-((3-chloro-2-methoxyphenyl)amino)-6-(((1-cyclopropyl-1H-1,2,3-triazol-4-yl)(4-fluorophenyl)methyl-d)amino)quinoline-3-carbonitrile] | – |
| – | – | ≥ 10000 | [2H][C@@](Nc1cc(-c2cncnc2)c2ncc(C#N)c(N[C@H](CCC(=O)O)c3ccccc3)c2c1)(c1cn(C2CC2)nn1)c1ccccc1Cl [Example 951, (R)-4-((6-(((S)-(2-chlorophenyl)(1-cyclopropyl-1H-1,2,3-triazol-4-yl)methyl-d)amino)-3-cyano-8-(pyrimidin-5-yl)quinolin-4-yl)amino)-4-phenylbutanoic acid] | EC50 [1, 6]: ≥ 1000 nM |
| 190 | 6 | – | CC(C)(C)CNc1c(C#N)cnc2c(Cl)cc(N[C@H](c3cn(C4CC4)nn3)c3ccccc3CO)cc12 [Example 114, (S)-8-chloro-6-(((1-cyclopropyl-1H-1,2,3-triazol-4-yl)(2-(hydroxymethyl)phenyl)methyl)amino)-4-(neopentylamino) quinoline-3-carbonitrile] | – |
| – | – | 19 | CC(C)(CO)CNc1c(C#N)cnc2c(C#N)cc(N[C@H](c3cn(C4(C)CC4)nn3)c3ccccc3Cl)cc12 [Example 1035, (S)-6-(((2-chlorophenyl)(1-(1-methylcyclopropyl)-1H-1,2,3-triazol-4-yl)methyl)amino)-4-((3-hydroxy-2,2-dimethylpropyl)amino)quinoline-3,8-dicarbonitrile] | EC50 [1, 6]: 316 nM |
| – | – | 2 | N#CCC[C@@H](Nc1c(C#N)cnc2c(C#N)cc(N[C@H](c3cn(C4CC4)nn3)c3ccccc3Cl)cc12)c1ccccc1 [Example 945, 6-(((S)-(2-chlorophenyl)(1-cyclopropyl-1H-1,2,3-triazol-4-yl)methyl)amino)-4-(((R)-3-cyano-1-phenylpropyl)amino)quinoline-3,8-dicarbonitrile] | EC50 [1, 6]: 29 nM |
